# Test results as given in patent US7511119B2, “PRAME peptide analogues” (MannKind Corporation, priority 2005, dated 2009).
# “Also recorded” adds a separate entry of the source. Square brackets hold non-standard residues; d marks the D form. Ends that are not written are not given here. Peptide text beside a SMILES is read from it. Phe(4-F) = N[C@@H](Cc1ccc(F)cc1)C(=O)O
# Test system: T cell lines against natural epitope SSX-241-49
# Assay: Cross-reactivity and functional avidity: IFN-gamma production by T cell lines raised against natural SSX-2 41-49;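 also: analogs presented ex vivo by competent APCs to T cells specific for the non-mutated epitope, scored by lowest activating concentration, peak cytokine effect and concentration at that peak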
# Format: cell-based, HHD transgenic mice
# Details: T cells raised to native peptide tested on analogs; footnote * and unit not given
row,Molecule,Cross-reactivity and fct avidity (native to analogs)*
1,CC[C@H](C)[C@H](NC(=O)[C@H](CCCCN)NC(=O)[C@H](CCC(=O)O)NC(=O)[C@H](CO)NC(=O)[C@H](C)NC(=O)[C@@H](N)Cc1ccc(F)cc1)C(=O)N[C@@H](Cc1ccccc1)C(=O)N[C@@H](Cc1ccc(O)cc1)C(=O)N[C@H](C(=O)O)C(C)C [SSX2 41-49 (K41(Phe-4F))] (H-[Phe(4-F)]ASEKIFYV-OH),3
2,"CC[C@H](C)[C@H](NC(=O)[C@H](CCCCN)NC(=O)[C@H](CCC(=O)O)NC(=O)[C@H](CO)NC(=O)C(C)(C)NC(=O)[C@@H](N)CCCCN)C(=O)N[C@@H](Cc1ccccc1)C(=O)N[C@@H](Cc1ccc(O)cc1)C(=O)N[C@H](C(=O)O)C(C)C [SSX2 41-49 (A42(Aib)), KAibSEKIFYV]",3
3,"CC[C@H](C)[C@H](NC(=O)[C@H](CCCCN)NC(=O)[C@H](CCC(=O)O)NC(=O)[C@H](CO)NC(=O)[C@H](C)NC(=O)[C@@H](N)CCCCN)C(=O)N[C@@H](Cc1ccccc1)C(=O)N[C@@H](Cc1ccc(O)cc1)C(=O)N[C@H](C(=O)O)C(C)C [SSX2 41-49, reference compound]",1
4,"FVSEKVFYV (T cell peptide epitope analog) [SSX2 41-49 (K41F, A42V, I46V)]",1
5,"CCC[C@H](NC(=O)[C@H](Cc1ccc(O)cc1)NC(=O)[C@H](Cc1ccccc1)NC(=O)[C@@H](NC(=O)[C@H](CCCCN)NC(=O)[C@H](CCC(=O)O)NC(=O)[C@H](CO)NC(=O)[C@@H](NC(=O)[C@@H](N)Cc1ccccc1)C(C)C)[C@@H](C)CC)C(=O)O [SSX2 41-49 (K41F, A42V, V49Nva)]",0.1
6,"CC[C@H](C)[C@H](NC(=O)[C@H](CCCCN)NC(=O)[C@H](CCC(=O)O)NC(=O)[C@H](CO)NC(=O)[C@@H](NC(=O)[C@@H](N)Cc1ccccc1)C(C)C)C(=O)N[C@@H](Cc1ccccc1)C(=O)N[C@@H](Cc1ccc(O)cc1)C(=O)N[C@@H](C)C(=O)O [SSX2 41-49 (K41F, A42V, V49A)]",1
7,"CCCC[C@H](NC(=O)[C@H](Cc1ccc(O)cc1)NC(=O)[C@H](Cc1ccccc1)NC(=O)[C@@H](NC(=O)[C@H](CCCCN)NC(=O)[C@H](CCC(=O)O)NC(=O)[C@H](CO)NC(=O)[C@@H](NC(=O)[C@@H](N)Cc1ccccc1)C(C)C)[C@@H](C)CC)C(=O)O [SSX2 41-49 (K41F, A42V, V49Nle)]",>10
8,"CC[C@H](C)[C@H](NC(=O)[C@H](CCCCN)NC(=O)[C@H](CCC(=O)O)NC(=O)[C@H](CO)NC(=O)[C@H](CC(C)C)NC(=O)[C@@H](N)Cc1ccccc1)C(=O)N[C@@H](Cc1ccccc1)C(=O)N[C@@H](Cc1ccc(O)cc1)C(=O)N[C@H](C(=O)O)C(C)C [SSX2 41-49 (K41F, A42L)]",0.3
9,K(D-Ala)SEKIFYV [SSX2 41-49 (A42(D-Ala))],10
10,"CC[C@H](C)[C@H](NC(=O)[C@H](CCCCN)NC(=O)[C@H](CCC(=O)O)NC(=O)[C@H](CO)NC(=O)[C@@H](NC(=O)[C@@H](N)Cc1ccccc1)C(C)C)C(=O)N[C@@H](Cc1ccccc1)C(=O)N[C@@H](Cc1ccc(O)cc1)C(=O)N[C@@H](CC(C)C)C(=O)O [SSX2 41-49 (K41F, A42V, V49L)]",>10
11,"FVSEKIFY(Aib) [SSX2 41-49 (K41F, A42V, V49Aib)]",>10
12,"CC[C@H](C)[C@H](NC(=O)[C@H](CCCCN)NC(=O)[C@H](CCC(=O)O)NC(=O)[C@H](CO)NC(=O)[C@H](CCSC)NC(=O)[C@@H](N)Cc1ccccc1)C(=O)N[C@@H](Cc1ccccc1)C(=O)N[C@@H](Cc1ccc(O)cc1)C(=O)N[C@H](C(=O)O)C(C)C [SSX2 41-49 (K41F, A42M)]",3
13,"CC[C@H](C)[C@H](NC(=O)[C@H](CCCCN)NC(=O)[C@H](CCC(=O)O)NC(=O)[C@H](CO)NC(=O)[C@H](Cc1ccc2ccccc2c1)NC(=O)[C@@H](N)CCCCN)C(=O)N[C@@H](Cc1ccccc1)C(=O)N[C@@H](Cc1ccc(O)cc1)C(=O)N[C@H](C(=O)O)C(C)C [SSX2 41-49 (A42(Nal-2)), KNal-2SEKIFYV]",3
14,KLSEKIFYV [SSX2 41-49-NH2 (A42L)],3
15,FVSEKLFTA,>10
16,"CC[C@H](C)[C@H](NC(=O)[C@H](CCCCN)NC(=O)[C@H](CCC(=O)O)NC(=O)[C@H](CO)NC(=O)[C@@H](NC(=O)[C@@H](N)Cc1c[nH]c2ccccc12)[C@@H](C)CC)C(=O)N[C@@H](Cc1ccccc1)C(=O)N[C@@H](Cc1ccc(O)cc1)C(=O)N[C@H](C(=O)O)C(C)C [SSX2 41-49 (K41W, A42I)]",0.1
17,KASEKIFYV [SSX2 41-49-NH2],>10
18,K(D-Val)SEKIFYV [SSX2 41-49 (A42(D-Val))],3

row,Molecule,Cross-reactivity and fct avidity (native to analogs)*
1,"FVSEKMFYV [SSX2 41-49 (K41F, A42V, I46M)]",>10
2,KNal-1SEKIFYV [SSX2 41-49 (A42(Nal-1))],>10
3,"CC[C@H](C)[C@H](NC(=O)[C@H](CCCCN)NC(=O)[C@H](CCC(=O)O)NC(=O)[C@H](CO)NC(=O)[C@H](CC(C)C)NC(=O)[C@H](N)CCCCN)C(=O)N[C@@H](Cc1ccccc1)C(=O)N[C@@H](Cc1ccc(O)cc1)C(=O)N[C@H](C(=O)O)C(C)C [SSX2 41-49 (K41(D-Lys), A42L)]",10
4,"CC[C@H](C)[C@H](NC(=O)[C@H](CCCCN)NC(=O)[C@H](CCC(=O)O)NC(=O)[C@H](CO)NC(=O)[C@@H](NC(=O)[C@@H](N)Cc1ccccc1)C(C)C)C(=O)N[C@@H](Cc1ccccc1)C(=O)N[C@@H](Cc1ccc(O)cc1)C(=O)N(C)[C@H](C(=O)O)C(C)C [SSX2 41-49 (K41F, A42V, V49MeVal)]",10
5,"CC[C@H](NC(=O)[C@@H](N)CCCCN)C(=O)N[C@@H](CO)C(=O)N[C@@H](CCC(=O)O)C(=O)N[C@@H](CCCCN)C(=O)N[C@H](C(=O)N[C@@H](Cc1ccccc1)C(=O)N[C@@H](Cc1ccc(O)cc1)C(=O)N[C@H](C(=O)O)C(C)C)[C@@H](C)CC [SSX2 41-49 (A42(Abu)), KAbuSEKIFYV]",0.3
6,CC[C@H](C)[C@H](NC(=O)[C@H](CCCCN)NC(=O)[C@H](CCC(=O)O)NC(=O)[C@H](CO)NC(=O)[C@H](CC(C)C)NC(=O)[C@@H](N)CCCCN)C(=O)N[C@@H](Cc1ccccc1)C(=O)N[C@@H](Cc1ccc(O)cc1)C(=O)N[C@H](C(=O)O)C(C)C [SSX2 41-49 (A42L)],0.03
7,"CCC[C@H](NC(=O)[C@@H](N)CCCCN)C(=O)N[C@@H](CO)C(=O)N[C@@H](CCC(=O)O)C(=O)N[C@@H](CCCCN)C(=O)N[C@H](C(=O)N[C@@H](Cc1ccccc1)C(=O)N[C@@H](Cc1ccc(O)cc1)C(=O)N[C@H](C(=O)O)C(C)C)[C@@H](C)CC [SSX2 41-49 (A42(Nva)), KNvaSEKIFYV]",0.1
8,"CC[C@H](C)[C@H](NC(=O)[C@H](CCCCN)NC(=O)[C@H](CO)NC(=O)[C@H](CO)NC(=O)[C@@H](NC(=O)[C@@H](N)Cc1ccccc1)C(C)C)C(=O)N[C@@H](Cc1ccccc1)C(=O)N[C@@H](Cc1ccc(O)cc1)C(=O)N[C@H](C(=O)O)C(C)C [SSX2 41-49 (K41F, A42V, E44S)]",>10
9,"FVSNKIFYV [SSX2 41-49 (K41F, A42V, E44N)]",>10
10,"CC[C@H](C)[C@H](NC(=O)[C@H](CCCCN)NC(=O)[C@H](CCC(=O)O)NC(=O)[C@H](CO)NC(=O)[C@@H](NC(=O)[C@@H](N)Cc1ccc(O)cc1)[C@@H](C)CC)C(=O)N[C@@H](Cc1ccccc1)C(=O)N[C@@H](Cc1ccc(O)cc1)C(=O)N[C@H](C(=O)O)C(C)C [SSX2 41-49 (K41Y, A42I)]",1
11,"KVSEKIFYI [SSX2 41-49 (A42V, V49I)]",0.3
12,"CC[C@H](C)[C@H](NC(=O)[C@H](CCCCN)NC(=O)[C@@H](NC(=O)[C@H](CO)NC(=O)[C@@H](NC(=O)[C@@H](N)Cc1ccccc1)C(C)C)[C@@H](C)O)C(=O)N[C@@H](Cc1ccccc1)C(=O)N[C@@H](Cc1ccc(O)cc1)C(=O)N[C@H](C(=O)O)C(C)C [SSX2 41-49 (K41F, A42V, E44T)]",>10
13,"CC[C@H](C)[C@H](NC(=O)[C@H](CCCCN)NC(=O)[C@H](CCC(=O)O)NC(=O)[C@H](CO)NC(=O)[C@@H](NC(=O)[C@H](N)CCCCN)C(C)C)C(=O)N[C@@H](Cc1ccccc1)C(=O)N[C@@H](Cc1ccc(O)cc1)C(=O)N[C@H](C(=O)O)C(C)C [SSX2 41-49 (K41(D-Lys), A42V)]",10
14,"CC[C@H](NC(=O)[C@H](Cc1ccc(O)cc1)NC(=O)[C@H](Cc1ccccc1)NC(=O)[C@@H](NC(=O)[C@H](CCCCN)NC(=O)[C@H](CCC(=O)O)NC(=O)[C@H](CO)NC(=O)[C@@H](NC(=O)[C@@H](N)Cc1ccccc1)C(C)C)[C@@H](C)CC)C(=O)O [SSX2 41-49 (K41F, A42V, V49Abu)]",1
15,CC[C@H](C)[C@H](NC(=O)[C@H](CCCCN)NC(=O)[C@H](CCC(=O)O)NC(=O)[C@H](CO)NC(=O)[C@H](C)NC(=O)[C@@H](N)Cc1c[nH]c2ccccc12)C(=O)N[C@@H](Cc1ccccc1)C(=O)N[C@@H](Cc1ccc(O)cc1)C(=O)N[C@H](C(=O)O)C(C)C [SSX2 41-49 (K41W)],>10
16,KVSEKIFYV [SSX2 41-49-NH2 (A42V)],10
17,"CCCC[C@H](NC(=O)[C@@H](N)CCCCN)C(=O)N[C@@H](CO)C(=O)N[C@@H](CCC(=O)O)C(=O)N[C@@H](CCCCN)C(=O)N[C@H](C(=O)N[C@@H](Cc1ccccc1)C(=O)N[C@@H](Cc1ccc(O)cc1)C(=O)N[C@H](C(=O)O)C(C)C)[C@@H](C)CC [SSX2 41-49 (A42(Nle)), KNleSEKIFYV]",0.1

# Same assay, conditions: compared with wild-type peptide
row,Molecule,"activity in cross-reactivity assay (IFN-gamma production by wild-type SSX-2 41-49 specific T cells), in words"
1,KLSEKIFYV [SSX2 41-49-NH2 (A42L)],lower concentration
2,"KASEKIFYVY (T cell peptide epitope analog) [SSX-241-50, wild-type SSX-2 41-50 decamer, reference compound]",no immunological activity; also recorded: significantly less active
